Experimental findings from ChEMBL document CHEMBL1201862, “PubChem BioAssay data set” (2004) are described below.

Test systems include 786-0; COLO 205; HCT-116; HOP-62; IGROV-1; KM12; MDA-MB-435; MDA-N; NCI/ADR-RES; OVCAR-3; OVCAR-5; RPMI-8226; SF-539; SNB-19; UO-31; DU-145; Hs-578T; RXF 393.
Common to all, as to experiment: NCI tumour cell line growth inhibition, 48 h

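Test compounds were applied to cells in 96-well plates for 48 hours at 5 doses. GI50 is the concentration that inhibits growth by half.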 The source made the active and inactive calls. No stated cut-off is given here; in the data, active = GI50 up to about 1.1 µM and inactive = higher. Where only a bound is given, the exact number is not on record here.

Take `CCCNc1c(Cl)cc(Cl)c2[nH]c3ccccc3c(=O)c12`: the GI50 is 30.2 µM (inactive) in the assay on 786-0; 42 µM (inactive) in the assay with COLO 205; 43.6 µM (inactive) in the assay on HCT-116; 56.1 µM (inactive) in the assay on HOP-62; 24.5 µM (inactive) in the assay with IGROV-1; 27.2 µM (inactive) in the assay on KM12. Besides, the GI50 with MDA-MB-435 is 39.9 µM (inactive); in the assay on MDA-N, 50.6 µM (inactive); with NCI/ADR-RES it was > 100 µM (inactive); with OVCAR-3, 48.2 µM (inactive); in the assay with OVCAR-5 it was > 100 µM (inactive); with RPMI-8226, 30.8 µM (inactive). In addition, the results for the GI50 with SF-539, in the assay with SNB-19 and with UO-31 were 32.4 µM (inactive), 18.4 µM (inactive) and 32.1 µM (inactive), respectively.
For `CC(C)(C)N1C(=O)[N-]/[N+](=C(/C(c2ccccc2)=[N+]2/[N-]C(=O)N(C(C)(C)C)C2=O)c2ccccc2)C1=O`, the GI50 in the assay on 786-0, in the assay with COLO 205, in the assay on DU-145, in the assay with HCT-116, in the assay with Hs-578T and in the assay with KM12 was > 100 µM (inactive) in each case. Further, the GI50 in the assay with MDA-MB-435, in the assay on MDA-N, in the assay with OVCAR-3, with OVCAR-5, in the assay on RPMI-8226 and in the assay with RXF 393 was > 100 µM (inactive) throughout. For the same molecule, the GI50 with SF-539, with SNB-19 and in the assay with UO-31 was > 100 µM (inactive) each time.
As for `CC(=O)[C@@H]1[C@@H](OC(=O)CCC(C)COC2OC(CO)C(O)C(O)C2O)C[C@H]2[C@@H]3CC=C4C[C@@H](OC5OC(CO)C(OC6OC(C)C(O)C(O)C6O)C(O)C5OC5OC(C)C(O)C(O)C5O)CC[C@]4(C)[C@H]3CC[C@]12C` (some centres not stated), the GI50 in the assay on 786-0, in the assay on COLO 205, with DU-145, with HCT-116, in the assay on HOP-62 and with KM12 was > 100 µM (inactive) in each case. The GI50 in the assay with MDA-MB-435, in the assay on MDA-N, with OVCAR-3, in the assay with OVCAR-5, in the assay with RPMI-8226 and in the assay with RXF 393 was > 100 µM (inactive) each time. Besides, the GI50 in the assay on SNB-19 and in the assay with UO-31 was > 100 µM (inactive) each time.
For `COc1cc(Br)c(OC)c2c(OC)cc(C)cc12`, the GI50 was 75.7 µM (inactive) with 786-0; > 100 µM (inactive) with COLO 205; > 100 µM (inactive) in the assay with DU-145; > 100 µM (inactive) in the assay on HCT-116; > 100 µM (inactive) with HOP-62; 52 µM (inactive) in the assay on Hs-578T. Also, the GI50 with IGROV-1 is > 100 µM (inactive); in the assay with KM12, > 100 µM (inactive); in the assay on MDA-MB-435, 70.6 µM (inactive); with NCI/ADR-RES, > 100 µM (inactive); in the assay on OVCAR-3, > 100 µM (inactive); in the assay with OVCAR-5, > 100 µM (inactive). Besides, the GI50 in the assay with RPMI-8226 was 54.5 µM (inactive); in the assay on RXF 393, 50.1 µM (inactive); in the assay with SF-539 it was > 100 µM (inactive); in the assay with SNB-19, > 100 µM (inactive); in the assay on UO-31, > 100 µM (inactive).
In the case of `COC[C@H](Cc1ccccc1)/N=C/c1ccccc1`, the GI50 in the assay with 786-0, with COLO 205, with DU-145, with HCT-116, in the assay on HOP-62 and with Hs-578T was > 100 µM (inactive) each time. Moreover, the GI50 with IGROV-1, in the assay on KM12, in the assay with MDA-MB-435, with NCI/ADR-RES, in the assay with OVCAR-5 and in the assay with RPMI-8226 was > 100 µM (inactive) throughout. The GI50 in the assay on RXF 393, in the assay with SNB-19 and with UO-31 was > 100 µM (inactive) each time.
As to `CCCCc1ccc(N2C(=O)c3cccnc3S2(=O)=O)cc1`, the GI50 in the assay on 786-0, in the assay on COLO 205, in the assay with DU-145, with HCT-116, in the assay on HOP-62 and in the assay with IGROV-1 was > 100 µM (inactive) throughout. The GI50 with KM12, in the assay on MDA-MB-435, in the assay with MDA-N, in the assay on NCI/ADR-RES, in the assay with OVCAR-3 and with OVCAR-5 was > 100 µM (inactive) throughout. Moreover, the GI50 in the assay on RPMI-8226, in the assay with RXF 393, with SF-539, in the assay with SNB-19 and with UO-31 was > 100 µM (inactive) in each case.
With `COc1cccc(C2c3cc4c(cc3OC(NNc3ccccc3)C2C)OCO4)c1OC` (configuration not stated), the GI50 in the assay with 786-0 was 19.4 µM (inactive); in the assay on COLO 205, 3.77 µM (inactive); in the assay on DU-145, 5.19 µM (inactive); with HCT-116, 3.78 µM (inactive); in the assay on HOP-62, 3.64 µM (inactive); in the assay with Hs-578T, 6.35 µM (inactive). Also, the GI50 in the assay on IGROV-1 was 4.6 µM (inactive); in the assay on KM12, 1.59 µM (inactive); with MDA-MB-435, 3.04 µM (inactive); in the assay on MDA-N, 5.46 µM (inactive); with OVCAR-3, 4.4 µM (inactive); in the assay on OVCAR-5, 6.62 µM (inactive). The GI50 with RPMI-8226 was 2.92 µM (inactive); in the assay on RXF 393 it was 3.76 µM (inactive); with SF-539, 4.14 µM (inactive); in the assay on SNB-19, 17.6 µM (inactive); with UO-31, 2.82 µM (inactive).
For the molecule `CC(=O)O[C@@H]1O[Si](C(C)(C)C)(C(C)(C)C)[C@H](C)[C@H]1C`, the GI50 in the assay with 786-0 is 33.5 µM (inactive); in the assay with COLO 205 it was > 100 µM (inactive); with HCT-116, 29.9 µM (inactive); in the assay on HOP-62, > 100 µM (inactive); in the assay on IGROV-1 it was 21.1 µM (inactive); in the assay on KM12, 30.5 µM (inactive). Also, the GI50 in the assay on MDA-MB-435 was 94.8 µM (inactive); in the assay on MDA-N it was > 100 µM (inactive); in the assay with NCI/ADR-RES, > 100 µM (inactive); with OVCAR-3, 24 µM (inactive); in the assay on OVCAR-5, > 100 µM (inactive); with RPMI-8226, 45.1 µM (inactive). The GI50 in the assay with SF-539, in the assay on SNB-19 and in the assay with UO-31 was > 100 µM (inactive) throughout.
On to `O=C(CNc1cccc([N+](=O)[O-])c1)Nn1c(-c2ccccc2)nc2ccccc2c1=O`, for which the GI50 was 0.399 µM (active) in the assay on 786-0; 1.43 µM (inactive) in the assay with COLO 205; 2.38 µM (inactive) with DU-145; 0.508 µM (active) in the assay on HCT-116; 1.97 µM (inactive) in the assay on HOP-62; 0.581 µM (active) in the assay on Hs-578T. The GI50 in the assay on IGROV-1 is 0.201 µM (active); in the assay with KM12, 1.18 µM (inactive); in the assay with MDA-MB-435, 2.02 µM (inactive); in the assay with NCI/ADR-RES, 0.282 µM (active); in the assay with OVCAR-3, 2.38 µM (inactive); in the assay with OVCAR-5 it was 1.77 µM (inactive). Also, the GI50 in the assay on RPMI-8226 is 0.478 µM (active); with RXF 393 it was 0.37 µM (active); with SF-539, 1.97 µM (inactive); in the assay with SNB-19, 2.11 µM (inactive); with UO-31, 0.743 µM (active).
On to `COc1ccc(/C=C2\CCC(C)C3=C2N=c2s/c(=C/c4cccc(Br)c4)c(=O)n2C3c2ccc(OC)c(OC)c2)cc1OC` (configuration not stated), for which the GI50 with 786-0, in the assay on DU-145, in the assay with HCT-116, with HOP-62, in the assay with Hs-578T and in the assay on IGROV-1 was > 100 µM (inactive) throughout. In addition, the GI50 in the assay with KM12, with MDA-MB-435, in the assay with MDA-N, with OVCAR-5, in the assay with RPMI-8226 and with RXF 393 was > 100 µM (inactive) throughout. Further, the GI50 in the assay on SNB-19 is > 100 µM (inactive).
In the case of `CCC(C)N1CN(c2ccccc2)C2(CCN(CCCSc3ccc(F)cc3)CC2)C1=O` (configuration not stated), the GI50 in the assay with 786-0 is 2.89 µM (inactive); in the assay on COLO 205, 1.72 µM (inactive); in the assay with DU-145, 3.03 µM (inactive); in the assay with HCT-116, 2.88 µM (inactive); in the assay on HOP-62, 2.11 µM (inactive); in the assay with IGROV-1, 4.31 µM (inactive). Moreover, the GI50 was 3.92 µM (inactive) with KM12; 3.05 µM (inactive) with MDA-MB-435; 2.9 µM (inactive) in the assay on MDA-N; 3.05 µM (inactive) in the assay on NCI/ADR-RES; 2.33 µM (inactive) in the assay on OVCAR-3; 2.1 µM (inactive) in the assay with OVCAR-5. Also, the GI50 with RPMI-8226 was 2.31 µM (inactive); in the assay with RXF 393, 2.84 µM (inactive); in the assay on SF-539 it was 2.57 µM (inactive); with SNB-19 it was 5.52 µM (inactive); with UO-31, 2.42 µM (inactive).
Regarding `CCN1CCN=C2c3cc(OC)ccc3Nc3c([N+](=O)[O-])ccc1c32`, the GI50 was 0.512 µM (active) with 786-0; 0.668 µM (active) in the assay with COLO 205; 2.72 µM (inactive) with DU-145; 0.634 µM (active) in the assay on HOP-62; 1.67 µM (inactive) with IGROV-1; 0.713 µM (active) with KM12. In addition, the GI50 with MDA-MB-435 was 1.01 µM (active); in the assay on MDA-N, 0.839 µM (active); with RPMI-8226 it was 0.552 µM (active); with RXF 393 it was 0.556 µM (active).
